Values of other authors, collected in US20250268885A1, “ORAL COMPOSITION COMPRISING NICOTINAMIDE” (CONARIS Research Institute AG, priority 2022, published 2025).

Conditions: sources collected in PubChem

- solubility relative to diclofenac sodium: several orders of magnitude higher
Compound: NC(=O)c1cccnc1 [Nicotinamide, nicotinamide]
